Each structure is given as a SMILES string.

Test [1] has as its target intracellular GCN2 (phosphorylation of the GCN2 substrate eIF2α) (Homo sapiens (Human), UniProt Q9P2K8). Briefly: GCN2 Cellular Inhibition Assay (AlphaScreen SureFire P-eIF2α Ser51, borrelidin-treated U2OS cells). It is filed as cell-based. To be noted: 10 μM borrelidin, 1 h, phosphorylated eIF2α Ser51, read-out: GCN2 Biomarker (IC50). In a few lines: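 Phospho-eIF2α (Ser51) measured by AlphaScreen SureFire in lysates of U2OS cells stimulated 1 h at 37 °C with 10 μM borrelidin alongside compound, 4-fold dilutions from 40 μM. Inhibition expressed as percent relative to borrelidin-alone controls.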
A general note: Alpha assays give light when donor and acceptor beads are brought close together.

The next test has as its target GCN2 kinase (Homo sapiens (Human), UniProt Q9P2K8). Briefly: GCN2 Enzyme Inhibition Assay (Transcreener ADP2 fluorescence polarization). Format: biochemical. To be noted: 280 μM ATP, 200 μM (RS)7 peptide, 4 nM GCN2, 25° C.; for Ki: Ki(app). In short, it runs like this:
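At 25 °C, GCN2 kinase (typical final concentration 4 nM) and (RS)7 peptide in Tris-HCl pH 7.5 buffer with MgCl2, NaCl and DTT were preincubated with compound for 10 min, then ATP was added for a 1 h reaction. ADP was read by FP with antibody/Alexa633 tracer. Non-linear tight-binding analysis gave IC50 and apparent Ki.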
(Fluorescence polarisation rises when a labelled molecule tumbles more slowly, as on binding a larger partner.)

intracellular GCN2 (phosphorylation of the GCN2 substrate eIF2α), sequence (Q9P2K8 whole entry): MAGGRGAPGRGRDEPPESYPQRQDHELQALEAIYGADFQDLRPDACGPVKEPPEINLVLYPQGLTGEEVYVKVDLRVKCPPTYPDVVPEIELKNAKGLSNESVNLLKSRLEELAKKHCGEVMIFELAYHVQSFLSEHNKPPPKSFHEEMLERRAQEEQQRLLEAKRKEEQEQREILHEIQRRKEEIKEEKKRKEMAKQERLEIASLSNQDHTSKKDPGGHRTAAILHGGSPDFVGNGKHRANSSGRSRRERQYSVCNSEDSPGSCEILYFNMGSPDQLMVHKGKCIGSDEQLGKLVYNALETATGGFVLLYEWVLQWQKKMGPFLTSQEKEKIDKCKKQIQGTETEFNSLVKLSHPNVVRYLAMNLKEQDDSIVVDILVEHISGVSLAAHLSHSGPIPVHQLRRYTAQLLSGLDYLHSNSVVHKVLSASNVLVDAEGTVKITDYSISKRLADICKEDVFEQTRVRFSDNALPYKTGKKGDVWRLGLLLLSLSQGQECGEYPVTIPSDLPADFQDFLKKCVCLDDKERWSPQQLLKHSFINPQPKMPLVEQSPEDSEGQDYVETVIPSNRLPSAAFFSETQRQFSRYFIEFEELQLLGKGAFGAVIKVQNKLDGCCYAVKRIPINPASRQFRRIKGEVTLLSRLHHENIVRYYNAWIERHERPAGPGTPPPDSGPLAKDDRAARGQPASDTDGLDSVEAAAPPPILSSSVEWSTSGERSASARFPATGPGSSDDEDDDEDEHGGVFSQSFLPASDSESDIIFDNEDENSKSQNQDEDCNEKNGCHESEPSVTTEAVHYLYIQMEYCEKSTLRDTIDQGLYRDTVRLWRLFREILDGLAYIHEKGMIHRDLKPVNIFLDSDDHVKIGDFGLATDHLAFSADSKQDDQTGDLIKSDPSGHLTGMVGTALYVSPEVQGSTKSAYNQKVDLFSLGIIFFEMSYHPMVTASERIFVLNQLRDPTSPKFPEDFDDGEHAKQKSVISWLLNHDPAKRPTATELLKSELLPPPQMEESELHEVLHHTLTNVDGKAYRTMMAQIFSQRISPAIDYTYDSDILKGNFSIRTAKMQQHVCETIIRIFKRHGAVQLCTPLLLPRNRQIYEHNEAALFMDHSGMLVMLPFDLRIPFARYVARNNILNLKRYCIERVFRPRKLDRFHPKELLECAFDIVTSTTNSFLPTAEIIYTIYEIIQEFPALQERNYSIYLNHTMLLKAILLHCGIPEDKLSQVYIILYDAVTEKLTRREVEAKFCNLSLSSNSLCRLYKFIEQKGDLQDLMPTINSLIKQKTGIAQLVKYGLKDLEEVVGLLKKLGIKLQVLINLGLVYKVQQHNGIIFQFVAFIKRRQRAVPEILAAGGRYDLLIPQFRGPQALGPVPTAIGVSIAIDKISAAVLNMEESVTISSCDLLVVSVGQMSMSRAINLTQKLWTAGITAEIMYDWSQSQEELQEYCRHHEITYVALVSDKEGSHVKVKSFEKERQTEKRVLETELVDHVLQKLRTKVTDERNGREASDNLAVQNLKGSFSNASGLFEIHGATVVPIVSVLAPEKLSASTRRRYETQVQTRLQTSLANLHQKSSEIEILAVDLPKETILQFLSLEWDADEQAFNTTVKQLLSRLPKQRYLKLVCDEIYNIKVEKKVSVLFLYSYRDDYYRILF
GCN2 kinase, sequence (Q9P2K8 whole entry): as above

The term IC50 denotes the concentration needed to halve the response being measured. As to `OCC1CCN(c2ccnc(-c3cnc4cc(F)c(Cl)cn34)n2)CC1c1ccccc1` (stereo not shown) [I-83, {1-[2-(6-Chloro-7-fluoro-imidazo[1,2-a]pyridin-3-yl)-pyrimidin-4-yl]-3-phenyl-piperidin-4-yl}-methanol], the IC50 in test [1] is 500 to 5000 nM. Further, on GCN2 kinase, the Ki lay in the range of 10 to 100 nM.
Take `Clc1ccc2ncc(-c3nccc(N4CC5CC5(c5ccccc5)C4)n3)n2c1` (stereo not shown) [I-84, 6-Chloro-3-[4-(1-phenyl-3-aza-bicyclo[3.1.0]hex-3-yl)-pyrimidin-2-yl]-imidazo[1,2-a]pyridine]: the IC50 in test [1] is more than 5000 nM. Moreover, the Ki at GCN2 kinase lay in the range of 100 to 1000 nM.
For the compound `OCC1(c2ccccc2)CCCN(c2ccnc(-c3cnc4cc(F)c(Cl)cn34)n2)C1` (stereo not shown) [I-85, {1-[2-(6-Chloro-7-fluoro-imidazo[1,2-a]pyridin-3-yl)-pyrimidin-4-yl]-3-phenyl-piperidin-3-yl}-methanol], the IC50 in test [1] was more than 5000 nM. The compound further registered a Ki on GCN2 kinase of 100 to 1000 nM.
Take `O=C(Nc1ccncc1)[C@H]1CCCN(c2ccnc(-c3cnc4cc(F)c(Cl)cn34)n2)C1` [I-86, (S)-1-[2-(6-Chloro-7-fluoro-imidazo[1,2-a]pyridine-3-yl)-pyrimidin-4-yl]-piperidine-3-carboxylic acid pyridine-4-ylamide]: the IC50 in test [1] lay within 500 to 5000 nM. This compound also registered a Ki on GCN2 kinase of 10 to 100 nM.
As for `Fc1cc2ncc(-c3nccc(N4CCOC(c5ccccn5)C4)n3)n2cc1Cl` (stereo not shown) [I-88, 6-Chloro-7-fluoro-3-[4-(2-pyridin-2-yl-morpholin-4-yl)-pyrimidin-2-yl]-imidazo[1,2-a]pyridine], in test [1], the IC50 was less than 500 nM. Also, the Ki at GCN2 kinase lay within 100 to 1000 nM.
`Cc1noc([C@H]2CN(c3ccnc(-c4cnc5ccc(C#N)cn45)n3)C[C@@H](C)O2)n1` [I-92, 3-{4-[(2R,6R)-2-methyl-6-(3-methyl-1,2,4-oxadiazol-5-yl)morpholin-4-yl]pyrimidin-2-yl}imidazo[1,2-a]pyridine-6-carbonitrile]: in test [1], the IC50 was 500 to 5000 nM. Besides, the Ki at GCN2 kinase was less than 10 nM.
On to `C[C@H]1CN(c2nc(-c3cnc4ccc(C(F)F)cn34)ns2)C[C@@H](CNS(C)(=O)=O)C1(F)F` [I-103, N-(((3S,5S)-1-(3-(6-(difluoromethyl)imidazo[1,2-a]pyridin-3-yl)-1,2,4-thiadiazol-5-yl)-4,4-difluoro-5-methylpiperidin-3-yl)methyl)methanesulfonamide], for which, in test [1], the IC50 was less than 500 nM. The Ki on GCN2 kinase was less than 10 nM.
Regarding `FC(F)(F)c1ccc2ncc(-c3nsc(N4CCOC(c5cn[nH]c5)C4)n3)n2c1` (stereo not shown) [I-104, 2-(1H-pyrazol-4-yl)-4-(3-(6-(trifluoromethyl)imidazo[1,2-a]pyridin-3-yl)-1,2,4-thiadiazol-5-yl)morpholine], the IC50 in test [1] was 500 to 5000 nM. The compound further returned a Ki at GCN2 kinase of 10 to 100 nM.
For `FC(F)c1ccc2ncc(-c3nsc(N4CCOC(c5cn[nH]c5)C4)n3)n2c1` (stereo not shown) [I-105, 4-(3-(6-(difluoromethyl)imidazo[1,2-a]pyridin-3-yl)-1,2,4-thiadiazol-5-yl)-2-(1H-pyrazol-4-yl)morpholine] the same measures were more than 5000 nM and 10 to 100 nM.
As to `CS(=O)(=O)NC[C@@H]1CN(c2nc(-c3cnc4ccc(C(F)(F)F)cn34)ns2)CCO1` [I-106, (S)—N-((4-(3-(6-(trifluoromethyl)imidazo[1,2-a]pyridin-3-yl)-1,2,4-thiadiazol-5-yl)morpholin-2-yl)methyl)methanesulfonamide], the IC50 in test [1] was more than 5000 nM. Further, the Ki on GCN2 kinase lay in the range of 10 to 100 nM.
Consider `CS(=O)(=O)NC[C@@H]1CN(c2nc(-c3cnc4ccc(C(F)F)cn34)ns2)CCO1` [I-107, (S)—N-((4-(3-(6-(difluoromethyl)imidazo[1,2-a]pyridin-3-yl)-1,2,4-thiadiazol-5-yl)morpholin-2-yl)methyl)methanesulfonamide], for which, in test [1], the IC50 is less than 500 nM. At GCN2 kinase, the Ki was less than 10 nM.
`FC(F)(F)c1ccc2ncc(-c3nc(N4CCOC(c5cn[nH]c5)C4)ns3)n2c1` (stereo not shown) [I-108, 2-(1H-pyrazol-4-yl)-4-(5-(6-(trifluoromethyl)imidazo[1,2-a]pyridin-3-yl)-1,2,4-thiadiazol-3-yl)morpholine]: the IC50 in test [1] is less than 500 nM. Besides, the Ki on GCN2 kinase is less than 10 nM.
As for `CS(=O)(=O)NC[C@@H]1CN(c2nsc(-c3cnc4ccc(C(F)(F)F)cn34)n2)CCO1` [I-109, (S)—N-((4-(5-(6-(trifluoromethyl)imidazo[1,2-a]pyridin-3-yl)-1,2,4-thiadiazol-3-yl)morpholin-2-yl)methyl)methanesulfonamide], the IC50 in test [1] lay in the range of 500 to 5000 nM. On GCN2 kinase, this compound registered a Ki of 10 to 100 nM.
In the case of `CS(=O)(=O)NCC1CCCN(c2nsc(-c3cnc4ccc(C(F)(F)F)cn34)n2)C1` (stereo not shown) [I-110, N-((1-(5-(6-(trifluoromethyl)imidazo[1,2-a]pyridin-3-yl)-1,2,4-thiadiazol-3-yl)piperidin-3-yl)methyl)methanesulfonamide], the half-inhibitory concentration (IC50) in test [1] was 500 to 5000 nM. Moreover, the Ki at GCN2 kinase was less than 10 nM.
For `CS(=O)(=O)NC[C@@H]1CN(c2nc(-c3cnc4ccc(C(F)(F)F)cn34)cs2)CCO1` [I-111, (S)—N-((4-(4-(6-(trifluoromethyl)imidazo[1,2-a]pyridin-3-yl)thiazol-2-yl)morpholin-2-yl)methyl)methanesulfonamide] the same measures were 500 to 5000 nM and 10 to 100 nM.
As to `CS(=O)(=O)NCC1CCCN(c2nc(-c3cnc4ccc(C(F)(F)F)cn34)ns2)C1` (stereo not shown) [I-112, N-((1-(3-(6-(trifluoromethyl)imidazo[1,2-a]pyridin-3-yl)-1,2,4-thiadiazol-5-yl)piperidin-3-yl)methyl)methanesulfonamide], in test [1], the IC50 was in the range of 500 to 5000 nM. Further, the Ki at GCN2 kinase was less than 10 nM.
Take `CS(=O)(=O)NC[C@@H]1CN(c2cncc(-c3cnc4ccc(Cl)cn34)n2)CCO1` [I-113, (S)—N-((4-(6-(6-chloroimidazo[1,2-a]pyridin-3-yl)pyrazin-2-yl)morpholin-2-yl)methyl)methanesulfonamide]: the IC50 in test [1] was in the range of 500 to 5000 nM. Further, on GCN2 kinase, the Ki is less than 10 nM.
Regarding `CN(C)C(=O)C1CCCN(c2ccnc(-c3cnc4ccc(C(F)(F)F)cn34)n2)C1` (stereo not shown) [I-130, N,N-dimethyl-1-(2-(6-(trifluoromethyl)imidazo[1,2-a]pyridin-3-yl)pyrimidin-4-yl)piperidine-3-carboxamide], the IC50 fell in the range of 500 to 5000 nM in test [1] and 10 to 100 nM on GCN2 kinase.
As to `COCCn1cc([C@H]2C[C@@H](C)CN(c3nccc(-c4cnc5ccc(C(F)(F)F)cn45)n3)C2)cn1` [I-143, 3-(2-((3R,5R)-3-(1-(2-methoxyethyl)-1H-pyrazol-4-yl)-5-methylpiperidin-1-yl)pyrimidin-4-yl)-6-(trifluoromethyl)imidazo[1,2-a]pyridine], the IC50 is less than 500 nM in test [1] and 10 to 100 nM against GCN2 kinase.
For the compound `COCCn1cc([C@H]2C[C@H](C)CN(c3nccc(-c4cnc5ccc(C(F)(F)F)cn45)n3)C2)cn1` [I-144, 3-(2-((3R,5S)-3-(1-(2-methoxyethyl)-1H-pyrazol-4-yl)-5-methylpiperidin-1-yl)pyrimidin-4-yl)-6-(trifluoromethyl)imidazo[1,2-a]pyridine], the results for the IC50 (in test [1]; against GCN2 kinase) were less than 500 nM and 100 to 1000 nM, respectively.
As to `COCCn1cc([C@@H]2C[C@@H](C)CN(c3nccc(-c4cnc5ccc(C(F)(F)F)cn45)n3)C2)cn1` [I-145, 3-(2-((3S,5R)-3-(1-(2-methoxyethyl)-1H-pyrazol-4-yl)-5-methylpiperidin-1-yl)pyrimidin-4-yl)-6-(trifluoromethyl)imidazo[1,2-a]pyridine], the IC50 in test [1] was less than 500 nM; against GCN2 kinase, 100 to 1000 nM.
For `COCCn1cc([C@@H]2C[C@H](C)CN(c3nccc(-c4cnc5ccc(C(F)(F)F)cn45)n3)C2)cn1` [I-146, 3-(2-((3S,5S)-3-(1-(2-methoxyethyl)-1H-pyrazol-4-yl)-5-methylpiperidin-1-yl)pyrimidin-4-yl)-6-(trifluoromethyl)imidazo[1,2-a]pyridine], the IC50 in test [1] was in the range of 500 to 5000 nM; against GCN2 kinase it was 100 to 1000 nM.
Turning to `Cc1[nH]ncc1[C@H]1CN(c2ccnc(-c3cnc4ccc(C(F)(F)F)cn34)n2)C[C@H](C)O1` [I-147, (2 S,6 S)-2-methyl-6-(5-methyl-1H-pyrazol-4-yl)-4-(2-(6-(trifluoromethyl)imidazo[1,2-a]pyridin-3-yl)pyrimidin-4-yl)morpholine], the values for the IC50 (in test [1]; against GCN2 kinase) were less than 500 nM and 10 to 100 nM, respectively.
Consider `CC1CC(C(N)=O)CN(c2ccnc(-c3cnc4ccc(C(F)(F)F)cn34)n2)C1` (stereo not shown) [I-149, 5-Methyl-1-[2-(6-trifluoromethyl-imidazo[1,2-a]pyridin-3-yl)-pyrimidin-4-yl]-piperidine-3-carboxylic acid amide], for which the IC50 in test [1] is less than 500 nM; against GCN2 kinase, less than 10 nM. Moreover, the Ki at GCN2 kinase is less than 10 nM.
For `NC(=O)[C@@H]1CN(c2ccnc(-c3cnc4ccc(C(F)(F)F)cn34)n2)CCO1` [I-150, (S)-4-(2-(6-(trifluoromethyl)imidazo[1,2-a]pyridin-3-yl)pyrimidin-4-yl)morpholine-2-carboxamide], the IC50 in test [1] was less than 500 nM; at GCN2 kinase, 10 to 100 nM.
On to `NC(=O)[C@H]1CCCN(c2nccc(-c3cnc4ccc(C(F)(F)F)cn34)n2)C1` [I-153, (S)-1-(4-(6-(trifluoromethyl)imidazo[1,2-a]pyridin-3-yl)pyrimidin-2-yl)piperidine-3-carboxamide], for which the 50% inhibitory concentration (IC50) in test [1] was less than 500 nM; on GCN2 kinase, less than 10 nM.
`Cc1nn(C)cc1[C@@H]1CN(c2nccc(-c3cnc4ccc(C(F)(F)F)cn34)n2)C[C@H](C)O1` [I-157, (2R,6S)-2-(1,3-dimethyl-1H-pyrazol-4-yl)-6-methyl-4-(4-(6-(trifluoromethyl)imidazo[1,2-a]pyridin-3-yl)pyrimidin-2-yl)morpholine]: the IC50 in test [1] was less than 500 nM; against GCN2 kinase, 100 to 1000 nM.
